Measurements taken from paper PMC12477080, “Polychlorinated biphenyls (PCBs) interact with drug metabolism in vivo” (Archives of Toxicology, 2025).

How the values were obtained:
[1] = Determination of PCB concentrations in plasma of HELPcB and control participants; assay type: in vivo; settings: human plasma, N 10; for PCB plasma concentration, Geometric mean, HELPcB: HELPcB group; for PCB plasma concentration, Geometric mean, Control: control group
Method: The laboratory regularly participates in round robins for the determination of PCBs in plasma (www.g-equas.de).
Plasma concentrations of PCB congeners were quantified in blood samples from all participants using gas chromatography/mass spectrometry (GC–MS) (Fig. 2A and Supplementary Table 2). A total of 19 PCB congeners were measured in control (n = 10) and HELPcB (n = 10) participants, with PCBs detected in all individuals. […] In the control group, PCB plasma concentrations primarily reflected background environmental exposure, such as dietary intake, representing the general population’s burden.

[2] = Stability of substrates and metabolites in quality control samples (benchtop, autosampler, freeze-thaw); assay type: physicochemical; settings: for Autosampler stability (24 h) Av. Accuracy (%): 10° C for 24 hours in the autosampler; for 3x freeze-thaw Av. Accuracy (%): after three freeze-thaw cycles; for Benchtop stability (19 h) Ac. Accuracy (%): room temperature for 19 hours
Text: The method was validated for intra- and interday accuracy and precision, stability, and matrix effects. […] Validation details are provided in Supplementary Tables 5–7 and supplemental Fig. 3. Glucuronidase/sulfatase digests were used to isolate CYP-specific metabolic activities, reducing interference from polymorphic UDP-glucuronosyltransferase (UGT) and sulfotransferase isoforms.
Supplemental table 6: Stability of the substrates and metabolites. Quality control samples were left at room temperature for 19 hours (benchtop stability) and at 10° C for 24 hours in the autosampler (autosampler stability) or were measured after three freeze-thaw cycles. Stability samples were measured against a freshly prepared set of calibrators and quality control samples.

SMILES: Clc1cc(Cl)c(-c2cc(Cl)c(Cl)cc2Cl)cc1Cl [PCB 153]
- PCB plasma concentration, Geometric mean, HELPcB [1]: 0.919 ng/mL
- PCB plasma concentration, Geometric mean, Control [1]: 0.297 ng/mL

SMILES: Clc1ccc(-c2cc(Cl)c(Cl)c(Cl)c2Cl)cc1Cl [PCB 156]
- PCB plasma concentration, Geometric mean, HELPcB [1]: 0.097 ng/mL
- PCB plasma concentration, Geometric mean, Control [1]: 0.036 ng/mL

SMILES: Clc1cc(-c2ccc(Cl)c(Cl)c2Cl)cc(Cl)c1Cl [PCB 157]
- PCB plasma concentration, Geometric mean, HELPcB [1]: 0.016 ng/mL
- PCB plasma concentration, Geometric mean, Control [1]: 0.005 ng/mL

SMILES: Clc1ccc(-c2ccc(Cl)c(Cl)c2Cl)cc1Cl [PCB 105]
- PCB plasma concentration, Geometric mean, HELPcB [1]: 0.014 ng/mL
- PCB plasma concentration, Geometric mean, Control [1]: BLQ

SMILES: Clc1ccc(-c2ccc(Cl)cc2Cl)cc1 [PCB 28]
- PCB plasma concentration, Geometric mean, HELPcB [1]: 0.014 ng/mL
- PCB plasma concentration, Geometric mean, Control [1]: 0.006 ng/mL

SMILES: Clc1cc(Cl)c(-c2cc(Cl)c(Cl)c(Cl)c2Cl)cc1Cl [PCB 180]
- PCB plasma concentration, Geometric mean, HELPcB [1]: 0.808 ng/mL
- PCB plasma concentration, Geometric mean, Control [1]: 0.372 ng/mL

SMILES: Clc1ccc(Cl)c(-c2cc(Cl)c(Cl)cc2Cl)c1 [PCB 101]
- PCB plasma concentration, Geometric mean, HELPcB [1]: 0.005 ng/mL
- PCB plasma concentration, Geometric mean, Control [1]: BLQ

SMILES: Clc1ccc(-c2cc(Cl)c(Cl)c(Cl)c2)cc1 [PCB 81]
- PCB plasma concentration, Geometric mean, HELPcB [1]: BLQ
- PCB plasma concentration, Geometric mean, Control [1]: BLQ

SMILES: Clc1ccc(-c2ccc(Cl)c(Cl)c2)cc1Cl [PCB 77]
- PCB plasma concentration, Geometric mean, HELPcB [1]: BLQ
- PCB plasma concentration, Geometric mean, Control [1]: BLQ

SMILES: Clc1ccc(-c2cc(Cl)c(Cl)c(Cl)c2Cl)cc1 [PCB 114]
- PCB plasma concentration, Geometric mean, HELPcB [1]: 0.008 ng/mL
- PCB plasma concentration, Geometric mean, Control [1]: BLQ

SMILES: Clc1ccc(Cl)c(-c2cc(Cl)ccc2Cl)c1 [PCB 52]
- PCB plasma concentration, Geometric mean, HELPcB [1]: BLQ
- PCB plasma concentration, Geometric mean, Control [1]: BLQ

SMILES: Clc1cc(-c2cc(Cl)c(Cl)c(Cl)c2Cl)cc(Cl)c1Cl [PCB 189]
- PCB plasma concentration, Geometric mean, HELPcB [1]: 0.014 ng/mL
- PCB plasma concentration, Geometric mean, Control [1]: 0.007 ng/mL

SMILES: Clc1cc(-c2cc(Cl)c(Cl)c(Cl)c2)cc(Cl)c1Cl [PCB 169]
- PCB plasma concentration, Geometric mean, HELPcB [1]: BLQ
- PCB plasma concentration, Geometric mean, Control [1]: BLQ

SMILES: Clc1ccc(-c2cc(Cl)c(Cl)c(Cl)c2)c(Cl)c1 [PCB 123]
- PCB plasma concentration, Geometric mean, HELPcB [1]: BLQ
- PCB plasma concentration, Geometric mean, Control [1]: BLQ

SMILES: Clc1cc(Cl)c(-c2cc(Cl)c(Cl)c(Cl)c2)cc1Cl [PCB 167]
- PCB plasma concentration, Geometric mean, HELPcB [1]: 0.027 ng/mL
- PCB plasma concentration, Geometric mean, Control [1]: 0.008 ng/mL

SMILES: Clc1ccc(-c2cc(Cl)c(Cl)c(Cl)c2)cc1Cl [PCB 126]
- PCB plasma concentration, Geometric mean, HELPcB [1]: BLQ
- PCB plasma concentration, Geometric mean, Control [1]: BLQ

SMILES: COCC(O)c1ccc(OCC(O)CNC(C)C)cc1 (centres unmarked) [OH-metoprolol]
- Autosampler stability (24 h) Av. Accuracy (%) ([2]; QC conc. 0,5 ng/ml): 101,05%
- 3x freeze-thaw Av. Accuracy (%) ([2]; QC conc. 0,5 ng/ml): 95,27%
- Benchtop stability (19 h) Ac. Accuracy (%) ([2]; QC conc. 0,5 ng/ml): 90,1%
- Autosampler stability (24 h) Av. Accuracy (%) ([2]; QC conc. 0,25 ng/ml): 90,24%
- 3x freeze-thaw Av. Accuracy (%) ([2]; QC conc. 0,25 ng/ml): 85,17%
- Benchtop stability (19 h) Ac. Accuracy (%) ([2]; QC conc. 0,25 ng/ml): 81,14%
- Autosampler stability (24 h) Av. Accuracy (%) ([2]; QC conc. 60 ng/ml): 97,01%
- 3x freeze-thaw Av. Accuracy (%) ([2]; QC conc. 60 ng/ml): 91,98%
- Benchtop stability (19 h) Ac. Accuracy (%) ([2]; QC conc. 60 ng/ml): 95,47%
- Autosampler stability (24 h) Av. Accuracy (%) ([2]; QC conc. 150 ng/ml): 88,29%
- 3x freeze-thaw Av. Accuracy (%) ([2]; QC conc. 150 ng/ml): 87,96%
- Benchtop stability (19 h) Ac. Accuracy (%) ([2]; QC conc. 150 ng/ml): 88,26%
- Autosampler stability (24 h) Av. Accuracy (%) ([2]; QC conc. 1,5 ng/ml): 96,56%
- 3x freeze-thaw Av. Accuracy (%) ([2]; QC conc. 1,5 ng/ml): 95,33%
- Benchtop stability (19 h) Ac. Accuracy (%) ([2]; QC conc. 1,5 ng/ml): 94,57%

SMILES: Cc1cccc(Nc2ccncc2S(=O)(=O)NC(=O)NC(C)C)c1 [torsemide, reference compound]
- Autosampler stability (24 h) Av. Accuracy (%) ([2]; QC conc. 1 ng/ml): 105,13%
- 3x freeze-thaw Av. Accuracy (%) ([2]; QC conc. 1 ng/ml): 102,74%
- Benchtop stability (19 h) Ac. Accuracy (%) ([2]; QC conc. 1 ng/ml): 97,46%
- Autosampler stability (24 h) Av. Accuracy (%) ([2]; QC conc. 2 ng/ml): 108,32%
- 3x freeze-thaw Av. Accuracy (%) ([2]; QC conc. 2 ng/ml): 105,85%
- Benchtop stability (19 h) Ac. Accuracy (%) ([2]; QC conc. 2 ng/ml): 107,17%
- Autosampler stability (24 h) Av. Accuracy (%) ([2]; QC conc. 6 ng/ml): 108,92%
- 3x freeze-thaw Av. Accuracy (%) ([2]; QC conc. 6 ng/ml): 106,12%
- Benchtop stability (19 h) Ac. Accuracy (%) ([2]; QC conc. 6 ng/ml): 107,51%
- Autosampler stability (24 h) Av. Accuracy (%) ([2]; QC conc. 240 ng/ml): 109,92%
- 3x freeze-thaw Av. Accuracy (%) ([2]; QC conc. 240 ng/ml): 103,96%
- Benchtop stability (19 h) Ac. Accuracy (%) ([2]; QC conc. 240 ng/ml): 108,15%
- Autosampler stability (24 h) Av. Accuracy (%) ([2]; QC conc. 600 ng/ml): 97,91%
- 3x freeze-thaw Av. Accuracy (%) ([2]; QC conc. 600 ng/ml): 96,67%
- Benchtop stability (19 h) Ac. Accuracy (%) ([2]; QC conc. 600 ng/ml): 99,27%

SMILES: Cn1c(=O)[nH]c2ncn(C)c2c1=O [Paraxanthine]
- Autosampler stability (24 h) Av. Accuracy (%) ([2]; QC conc. 10 ng/ml): 96,28%
- 3x freeze-thaw Av. Accuracy (%) ([2]; QC conc. 10 ng/ml): 96,57%
- Benchtop stability (19 h) Ac. Accuracy (%) ([2]; QC conc. 10 ng/ml): 89,99%
- Autosampler stability (24 h) Av. Accuracy (%) ([2]; QC conc. 30 ng/ml): 105,74%
- 3x freeze-thaw Av. Accuracy (%) ([2]; QC conc. 30 ng/ml): 103,75%
- Benchtop stability (19 h) Ac. Accuracy (%) ([2]; QC conc. 30 ng/ml): 105,38%
- Autosampler stability (24 h) Av. Accuracy (%) ([2]; QC conc. 1200 ng/ml): 105,06%
- 3x freeze-thaw Av. Accuracy (%) ([2]; QC conc. 1200 ng/ml): 100,61%
- Benchtop stability (19 h) Ac. Accuracy (%) ([2]; QC conc. 1200 ng/ml): 103,5%
- Autosampler stability (24 h) Av. Accuracy (%) ([2]; QC conc. 3000 ng/ml): 93,91%
- 3x freeze-thaw Av. Accuracy (%) ([2]; QC conc. 3000 ng/ml): 92,32%
- Benchtop stability (19 h) Ac. Accuracy (%) ([2]; QC conc. 3000 ng/ml): 94,2%
